Like-named read-outs stand apart in the source and are kept apart here. Residues, ends and D or L forms follow the SMILES beside them. No end group written: not given here.
How the values were obtained:
[1] = Solubility of synthetic peptides in aqueous solution; assay type: physicochemical; conditions: in words; stocks 10 mM in deionised water
Protocol: Based on the in silico activity prediction, four synthetic peptides were ordered from Peptide Synthetics (Protein Peptide Research Ltd., Fareham, UK). They were supplied as 10 mg aliquots of lyophilised powders. The synthetic peptides were dissolved in deionised water to produce 10 mM stock solutions: • FWG: 10 mg/mL = 24.48 mM therefore 10 mM = 4.085 mg/mL • MFLG: 10 mg/mL = 21.43 mM therefore10 mM = 4.666 mg/mL • […]: 10 mg/mL = 10.75 mM therefore 10 mM = 9.302 mg/mL • FFNDA: 10 mg/mL = 16.32 mM or10 mM = 6.127 mg/mL

ACE from rabbit lung = biological target: T1, ACE from rabbit lung (Oryctolagus cuniculus, UniProt P12822); assay: ACE-inhibition assay (modified Cushman and Cheung, HHL substrate, HPLC); assay type: biochemical; conditions: 0.5 mM HHL, TRIS pH 8.3, 37 °C 30 min, HPLC-UV 228 nm, calculated from % inhibition at 0.1, 1 (2) mM, this study
T1 construct: ACE from rabbit lung (purchased from Sigma Aldrich 2U equal to 1 mg of protein); purchased Sigma Aldrich; host or cells: rabbit lung
T1 sequence (P12822 34-1310): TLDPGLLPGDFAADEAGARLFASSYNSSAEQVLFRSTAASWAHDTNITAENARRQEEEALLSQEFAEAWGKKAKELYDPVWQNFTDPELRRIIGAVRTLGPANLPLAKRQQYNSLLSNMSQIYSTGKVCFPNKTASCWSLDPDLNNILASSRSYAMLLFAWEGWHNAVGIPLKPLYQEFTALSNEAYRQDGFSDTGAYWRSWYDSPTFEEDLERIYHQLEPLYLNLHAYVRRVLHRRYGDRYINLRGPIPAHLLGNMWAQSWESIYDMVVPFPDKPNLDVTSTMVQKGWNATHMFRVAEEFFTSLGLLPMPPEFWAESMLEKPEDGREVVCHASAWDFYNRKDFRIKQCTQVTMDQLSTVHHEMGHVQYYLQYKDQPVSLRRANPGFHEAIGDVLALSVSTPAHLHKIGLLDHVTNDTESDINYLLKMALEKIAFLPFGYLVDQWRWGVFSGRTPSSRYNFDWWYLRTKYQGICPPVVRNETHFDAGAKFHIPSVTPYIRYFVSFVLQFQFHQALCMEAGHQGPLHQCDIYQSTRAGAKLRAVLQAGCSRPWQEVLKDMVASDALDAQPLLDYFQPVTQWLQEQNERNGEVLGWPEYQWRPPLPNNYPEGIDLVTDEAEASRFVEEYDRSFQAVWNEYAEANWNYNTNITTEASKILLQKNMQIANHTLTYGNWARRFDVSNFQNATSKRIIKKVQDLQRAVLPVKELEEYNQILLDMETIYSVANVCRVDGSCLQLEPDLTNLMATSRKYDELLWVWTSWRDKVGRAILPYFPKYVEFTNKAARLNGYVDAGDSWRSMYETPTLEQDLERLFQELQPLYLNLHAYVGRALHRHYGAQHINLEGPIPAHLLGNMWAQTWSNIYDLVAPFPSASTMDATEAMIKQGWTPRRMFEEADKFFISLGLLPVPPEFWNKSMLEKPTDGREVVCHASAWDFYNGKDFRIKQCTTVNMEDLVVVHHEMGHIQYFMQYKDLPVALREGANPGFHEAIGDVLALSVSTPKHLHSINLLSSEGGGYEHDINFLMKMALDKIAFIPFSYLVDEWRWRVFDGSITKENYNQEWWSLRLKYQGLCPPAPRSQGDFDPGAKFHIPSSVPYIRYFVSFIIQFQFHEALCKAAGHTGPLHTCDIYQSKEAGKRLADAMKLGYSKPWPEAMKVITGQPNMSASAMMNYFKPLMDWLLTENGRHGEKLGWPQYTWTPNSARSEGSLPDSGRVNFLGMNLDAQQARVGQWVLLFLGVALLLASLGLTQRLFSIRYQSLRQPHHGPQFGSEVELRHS
Protocol: ACE from rabbit lung (purchased from Sigma Aldrich 2U equal to 1 mg of protein) was reconstituted in milli-q water (1 mL) to produce the ACE stock solution (1 U/mL, 500 μg/mL of protein). ACE working solution (200 mU/mL, 100 μg/mL of protein) was prepared by diluting the stock solution 1:5. ACE stock solution was stored at −20 °C, and the ACE working solution was prepared when required. […] Milli-q water or experimental sample (40 μL) and 0.5 mM HHL (145 μL) were added to 1.5 mL micro-centrifuge tubes and incubated in a water bath at 37 °C for 3 min; then, 200 mU/mL ACE (15 μL) was added to each tube and the tubes were then incubated in a water bath at 37 °C for 30 min. After 30 min, 1 M HCl (200 μL) was added to the tubes to stop the reaction.
To determine the anti-ACE activity of the analytes, the samples were analysed using HPLC (Beckman Coulter) fitted with an Ascentis® Express Peptide ES-C18, 2.7 μm column. The samples were eluted with an isocratic mobile phase consisting of 50% methanol and 50% water containing trifluoroacetic acid (TFA) (0.2%) at a flow rate of 0.4 mL/min. The substrate and the product were detected using UV at 228 nm. The ability of each peptide to inhibit ACE was measured by comparing the reduction of HA (the product of ACE digested HHL) in relation to the positive control (no inhibitor or peptide present). Inhibition was calculated using Equation (1), as follows:ACE inhibition (%) = (1 − (B ÷ A)) × 100(1) where A is the area of the HA peak in control 1 and B is the area of the HA peak in experimental sample. To assess the anti-ACE activity of the synthetic peptides, samples were prepared by diluting the 10 mM stock synthetic peptide solutions using milli-q water to produce samples at 2 mM, 1 mM, and 0.1 mM.

ACE = test system: ACE; design: method as in 14 sources, ref [13, 14] = [13]; PMID 16218651; doi:10.1021/jf0508908; 13. Vercruysse L. Van Camp J. Smagghe G. ACE inhibitory peptides derived from enzymatic hydrolysates of animal muscle protein: A review J. Agric. Food Chem. 2005 53 8106 8115 10.1021/jf0508908 1621865 || [14]; PMID 22061507; doi:10.1016/S0309-1740(00)00108-X; 14. Arihara K. Nakashima Y. Mukai T. Ishikawa S. Itoh M. Peptide inhibitors for angiotensin I-converting enzyme from enzymatic hydrolysates of porcine skeletal muscle proteins Meat Sci. 2001 57 319 32 ||| ref [13, 15] = [13]; PMID 16218651; doi:10.1021/jf0508908; 13. Vercruysse L. Van Camp J. Smagghe G. ACE inhibitory peptides derived from enzymatic hydrolysates of animal muscle protein: A review J. Agric. Food Chem. 2005 53 8106 8115 10.1021/jf0508908 1621865 || [15]; doi:10.1046/j.1344-3941.2003.00086.x; 15. Katayama K. Tomatsu M. Fuchu H. Sugiyama M. Kawahara S. Yamauchi K. Kawamura Y. Muguruma M. Purification and characterization of an angiotensin I-converting enzyme inhibitory peptide derived from ||| ref [16] = [16]; doi:10.1016/j.foodchem.2008.09.081; 16. Muguruma M. Ahhmed A.M. Katayama K. Kawahara S. Maruyama M. Nakamura T. Identification of pro-drug type ACE inhibitory peptide sourced from porcine myosin B: Evaluation of its antihypertensive eff ||| ref [17] = [17]; PMID 1368684; 17. Miyoshi S. Ishikawa H. Kaneko T. Fukui F. Tanaka H. Maruyama S. Structures and activity of angiotensin-converting enzyme inhibitors in an α-zein hydrolysate Agric. Biol. Chem. 1991 55 1313 1318 13 ||| ref [17, 18] = [17]; PMID 1368684; 17. Miyoshi S. Ishikawa H. Kaneko T. Fukui F. Tanaka H. Maruyama S. Structures and activity of angiotensin-converting enzyme inhibitors in an α-zein hydrolysate Agric. Biol. Chem. 1991 55 1313 1318 13 || [18]; PMID 16448176; doi:10.1021/jf051263l; 18. Wu J. Aluko R.E. Nakai S. Structural requirements of angiotensin i-converting enzyme inhibitory peptides: Quantitative structure−activity relationship study of di- and tripeptides J. Agric. Food C ||| ...; conditions: cited from earlier work; for ACE inhibition (in words): fish skin gelatine hydrolysate peptides, ref [26]; for IC50: porcine-derived peptides, literature, read-out: ACE Inhibition IC50

## CSCC[C@H](N)C(=O)N[C@@H](Cc1ccccc1)C(=O)N[C@@H](CC(C)C)C(=O)NCC(=O)O [MFLG] (H-MFLG-OH)
[1]
  Solubility in aqueous solution: readily soluble in aqueous solution
ACE from rabbit lung
  IC50: 0.07 mM

## FFNDA [FFNDA]
[1]
  Solubility in aqueous solution: perhaps less soluble
ACE from rabbit lung
  IC50: 0.83 mM

## GIPGAP [peptide from hydrolysates of thornback ray skin]
ACE
  ACE inhibition (in words): most active ACE inhibitor

## ITTNP [literature porcine peptide, myosin]
ACE; ref [13],[14]
  IC50: 549 µM

## KAPVA [literature porcine peptide, titin]
ACE; ref [20],[24]
  IC50: 47 µM

## KRQKYDI [literature porcine peptide, troponin]
ACE; ref [17],[20]
  IC50: 27 µM

## KRVITY [literature porcine peptide, myosin]
ACE; ref [16]
  IC50: 6 µM

## LLMLDNDLPP
ACE
  ACE inhibition (in words): potent non-competitive ACE inhibition

## MNPPK [literature porcine peptide, myosin]
ACE; ref [13],[14]
  IC50: 946 µM

## PTPVP [literature porcine peptide, titin]
ACE; ref [20],[24]
  IC50: 256 µM

## RMLGQTP [literature porcine peptide, troponin C]
ACE; ref [13],[15]
  IC50: 503 µM

## RMLGQTPTK [literature porcine peptide, troponin C]
ACE; ref [13],[15]
  IC50: 34 µM

## SDPPLVFVG
[1]
  Solubility in aqueous solution: perhaps less soluble
ACE from rabbit lung
  IC50: 1.16 mM

## VKAGF [literature porcine peptide, actin]
ACE; ref [16]
  IC50: 20 µM

## VKKVLGNP [literature porcine peptide, myosin (light chain)]
ACE; ref [20],[21]
  IC50: 29 µM

## VLAQYK [peptide derived from meat waste]
ACE; peptide derived from meat waste, ref [7]
  ACE-inhibitory activity (in words): greatest ACE-inhibitory activity
